# Test results reported in ChEMBL document CHEMBL1201862, “PubChem BioAssay data set” (2004).
#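 Cultured in 96-well plates, cells were exposed to test compound for 48 hours across five concentrations. GI50 = concentration required for 50% inhibition of growth.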 Activity calls are given as the source filed them. No stated cut-off is given here; in the data, active = GI50 up to about 1.1 µM and inactive = higher.
# Legend:
# Test in all cases: NCI anticancer screen, dose series, 48 h
# 786-0 = test system: 786-0
# A498 = test system: A498
# A549 = test system: A549
# ACHN = test system: ACHN
# BT-549 = test system: BT-549
# CAKI-1 = test system: CAKI-1
# CCRF-CEM = test system: CCRF-CEM
# COLO 205 = test system: COLO 205
# DU-145 = test system: DU-145
# EKVX = test system: EKVX
# HCC 2998 = test system: HCC 2998
# HCT-116 = test system: HCT-116
# HCT-15 = test system: HCT-15
# HOP-62 = test system: HOP-62
# HOP-92 = test system: HOP-92
# HT-29 = test system: HT-29
# Hs-578T = test system: Hs-578T
# IGROV-1 = test system: IGROV-1
# K562 = test system: K562
# KM12 = test system: KM12
# LOX IMVI = test system: LOX IMVI
# M14 = test system: M14
# MCF7 = test system: MCF7
# MDA-MB-231 = test system: MDA-MB-231
# MDA-MB-435 = test system: MDA-MB-435
# MDA-N = test system: MDA-N
# MOLT-4 = test system: MOLT-4
# NCI-H226 = test system: NCI-H226
# NCI-H23 = test system: NCI-H23
# NCI-H460 = test system: NCI-H460
# NCI/ADR-RES = test system: NCI/ADR-RES
# OVCAR-3 = test system: OVCAR-3
# OVCAR-4 = test system: OVCAR-4
# OVCAR-5 = test system: OVCAR-5
# PC-3 = test system: PC-3
# RPMI-8226 = test system: RPMI-8226
# RXF 393 = test system: RXF 393
# SF-268 = test system: SF-268
# SF-295 = test system: SF-295
# SF-539 = test system: SF-539
# SK-MEL-28 = test system: SK-MEL-28
# SK-MEL-2 = test system: SK-MEL-2
# SK-MEL-5 = test system: SK-MEL-5
# SK-OV-3 = test system: SK-OV-3
# SN12C = test system: SN12C
# SNB-19 = test system: SNB-19
# SNB-75 = test system: SNB-75
# SR = test system: SR
# SW-620 = test system: SW-620
# T47D = test system: T47D
# TK-10 = test system: TK-10
# U-251 = test system: U-251
# UACC-257 = test system: UACC-257
# UACC-62 = test system: UACC-62
# UO-31 = test system: UO-31
smiles,measurement,setting,value
COC(OC)[C@@H]1OC[C@H](n2ccc(=O)[nH]c2=O)[C@H]1O,GI50,786-0,> 100 µM (inactive)
same,GI50,A498,> 100 µM (inactive)
same,GI50,A549,> 100 µM (inactive)
same,GI50,ACHN,> 100 µM (inactive)
same,GI50,BT-549,> 100 µM (inactive)
same,GI50,CAKI-1,> 100 µM (inactive)
same,GI50,CCRF-CEM,> 100 µM (inactive)
same,GI50,COLO 205,> 100 µM (inactive)
same,GI50,DU-145,> 100 µM (inactive)
same,GI50,EKVX,> 100 µM (inactive)
same,GI50,HCC 2998,> 100 µM (inactive)
same,GI50,HCT-116,> 100 µM (inactive)
same,GI50,HCT-15,> 100 µM
same,GI50,HOP-62,> 100 µM (inactive)
same,GI50,HOP-92,> 100 µM (inactive)
same,GI50,HT-29,> 100 µM (inactive)
same,GI50,Hs-578T,> 100 µM (inactive)
same,GI50,IGROV-1,> 100 µM (inactive)
same,GI50,K562,> 100 µM (inactive)
same,GI50,KM12,> 100 µM (inactive)
same,GI50,LOX IMVI,> 100 µM (inactive)
same,GI50,M14,> 100 µM (inactive)
same,GI50,MCF7,> 100 µM (inactive)
same,GI50,MDA-MB-231,> 100 µM (inactive)
same,GI50,MDA-MB-435,> 100 µM (inactive)
same,GI50,MDA-N,> 100 µM (inactive)
same,GI50,MOLT-4,> 100 µM (inactive)
same,GI50,NCI-H226,> 100 µM (inactive)
same,GI50,NCI-H23,> 100 µM (inactive)
same,GI50,NCI-H460,> 100 µM (inactive)
same,GI50,NCI/ADR-RES,> 100 µM (inactive)
same,GI50,OVCAR-3,> 100 µM (inactive)
same,GI50,OVCAR-4,> 100 µM (inactive)
same,GI50,OVCAR-5,> 100 µM (inactive)
same,GI50,PC-3,> 100 µM (inactive)
same,GI50,RPMI-8226,> 100 µM (inactive)
same,GI50,RXF 393,66.4 µM (inactive)
same,GI50,SF-268,> 100 µM (inactive)
same,GI50,SF-295,> 100 µM (inactive)
same,GI50,SF-539,> 100 µM (inactive)
same,GI50,SK-MEL-28,> 100 µM (inactive)
same,GI50,SK-MEL-2,> 100 µM (inactive)
same,GI50,SK-MEL-5,> 100 µM (inactive)
same,GI50,SK-OV-3,> 100 µM (inactive)
same,GI50,SN12C,> 100 µM (inactive)
same,GI50,SNB-19,67.3 µM (inactive)
same,GI50,SNB-75,> 100 µM (inactive)
same,GI50,SR,> 100 µM (inactive)
same,GI50,SW-620,> 100 µM (inactive)
same,GI50,T47D,> 100 µM (inactive)
same,GI50,TK-10,> 100 µM (inactive)
same,GI50,U-251,> 100 µM (inactive)
same,GI50,UACC-257,> 100 µM (inactive)
same,GI50,UACC-62,> 100 µM (inactive)
same,GI50,UO-31,> 100 µM (inactive)
